The NIST ThermoML archive (doi:10.1021/je300886k)
Numbers after ± are expanded uncertainties.

What was measured:
[1] = Liquid; for mass density: 298.15 K, 101.33 kPa, Vibrating tube method; for vapor or sublimation pressure: Ebulliometric method (Recirculating still)
[2] = refractive index (Na D-line) (dimensionless); conditions: 298.15 K; 101.33 kPa; Liquid; Standard Abbe refractometry
[3] = mn = molality of the nth substance listed, in mol/kg; conditions: 298.15 K, 101 kPa, Liquid, Vibrating tube method

CCOC(C)=O [ethyl acetate]
Conditions | mass density [kg/m3] | refractive index
[1] | 897.72 ± 0.1 | –
[2] | – | 1.3698 ± 0.0004

Conditions | vapor or sublimation pressure [kPa]
[1], 350.45 K | 101 ± 1

CCO [ethanol]
Conditions | mass density [kg/m3] | refractive index
[1] | 785.22 ± 0.22 | –
[2] | – | 1.3599 ± 0.0004

Conditions | vapor or sublimation pressure [kPa]
[1], 352.75 K | 101 ± 1

O=[N+]([O-])[O-].O=[N+]([O-])[O-].[Zn+2] [nitric acid, zinc salt] + CCO
[3]
Conditions | mass density [kg/m3]
m1 = 0.0053 | 785.9 ± 0.13
m1 = 0.0106 | 786.55 ± 0.13
m1 = 0.0159 | 787.2 ± 0.13
m1 = 0.0212 | 787.84 ± 0.13
m1 = 0.0265 | 788.49 ± 0.13
m1 = 0.0292 | 788.78 ± 0.13
m1 = 0.0319 | 789.09 ± 0.13
m1 = 0.0346 | 789.38 ± 0.13
m1 = 0.0372 | 789.7 ± 0.13
m1 = 0.0399 | 789.99 ± 0.13
m1 = 0.0426 | 790.29 ± 0.13
m1 = 0.0453 | 790.6 ± 0.13
m1 = 0.048 | 790.89 ± 0.13
m1 = 0.0507 | 791.19 ± 0.13
m1 = 0.0533 | 791.49 ± 0.13
m1 = 0.0804 | 794.55 ± 0.13

[Cl-].[Cl-].[Mg+2] [magnesium chloride] + CCO
[3]
Conditions | mass density [kg/m3]
m1 = 0.0105 | 782.98 ± 0.13
m1 = 0.0211 | 783.73 ± 0.13
m1 = 0.0317 | 784.5 ± 0.13
m1 = 0.0423 | 785.26 ± 0.13
m1 = 0.053 | 786.01 ± 0.13
m1 = 0.0583 | 786.38 ± 0.13
m1 = 0.0636 | 786.75 ± 0.13
m1 = 0.0689 | 787.12 ± 0.13
m1 = 0.0743 | 787.49 ± 0.13
m1 = 0.0796 | 787.86 ± 0.13
m1 = 0.085 | 788.23 ± 0.13
m1 = 0.0903 | 788.57 ± 0.13
m1 = 0.0957 | 788.93 ± 0.13

O=[N+]([O-])[O-].O=[N+]([O-])[O-].[Mg+2] [magnesium nitrate] + CCO
[3]
Conditions | mass density [kg/m3]
m1 = 0.0067 | 782.9 ± 0.13
m1 = 0.0135 | 783.59 ± 0.13
m1 = 0.0203 | 784.17 ± 0.13
m1 = 0.0271 | 784.79 ± 0.13
m1 = 0.0339 | 785.43 ± 0.13
m1 = 0.0373 | 785.75 ± 0.13
m1 = 0.0407 | 786.06 ± 0.13
m1 = 0.0441 | 786.43 ± 0.13
m1 = 0.0475 | 786.74 ± 0.13
m1 = 0.051 | 787.05 ± 0.13
m1 = 0.0544 | 787.34 ± 0.13
m1 = 0.0578 | 787.64 ± 0.13
m1 = 0.0612 | 787.92 ± 0.13
m1 = 0.0647 | 788.22 ± 0.13
m1 = 0.0681 | 788.49 ± 0.13
